This is an account of results in patent US9035052B2, “Compositions of azimilide dihydrochloride” (WARNER CHILCOTT COMPANY, LLC, priority 2006, dated 2015).

Data set [1] in a line: Stability / water uptake of the solid state forms on exposure to relative humidity. Format: physicochemical.
Data set [2] is described as follows: Apparent water solubility and dissolution of the solid state forms.

`CN1CCN(CCCCN2C(=O)CN(/N=C/c3ccc(-c4ccc(Cl)cc4)o3)C2=O)CC1.Cl.Cl` [anhydrate, (E)-1-[[[5-(4-chlorophenyl)-2-furanyl]methylene]amino]-3-[4-(4-methyl-1-piperazinyl)butyl]-2,4-imidazolidinedione dihydrochloride]: the “hygroscopicity (water uptake)” value in data set [1] (room temperature, 85% relative humidity, up to 4 weeks) was “no evidence of water uptake”. Moreover, the “solubility as per the USP definition of solubility” value in data set [2] is “freely soluble”. The solubility in data set [2] (water) was 160 mg/mL.
Take `CN1CCN(CCCCN2C(=O)CN(/N=C/c3ccc(-c4ccc(Cl)cc4)o3)C2=O)CC1.Cl.Cl` [isopropanol solvate, (E)-1-[[[5-(4-chlorophenyl)-2-furanyl]methylene]amino]-3-[4-(4-methyl-1-piperazinyl)butyl]-2,4-imidazolidinedione dihydrochloride]: in data set [1] (85% relative humidity), the “solid form conversion on humidity exposure” value is given as “converts to the anhydrate form within days to weeks”. Moreover, the “stability upon exposure to humidity” value in data set [1] (exposure to humidity) is “not stable”. For the same compound, in data set [2] (water, room temperature, dihydrochloride), the apparent water solubility was determined as 220 mg/mL.
In the case of `CN1CCN(CCCCN2C(=O)CN(/N=C/c3ccc(-c4ccc(Cl)cc4)o3)C2=O)CC1.Cl.Cl` [hemi-hydrate, (E)-1-[[[5-(4-chlorophenyl)-2-furanyl]methylene]amino]-3-[4-(4-methyl-1-piperazinyl)butyl]-2,4-imidazolidinedione dihydrochloride], the water content stability result in data set [1] (room temperature, relative humidity range of 12% to 85% RH) is reported as “stable”. For the same compound, the “dissolution rate compared with the anhydrate form” value in data set [2] (water) is on record as “more rapid”. Further, the solubility in data set [2] (water, apparent water solubility, room temperature) was about 170 mg/mL.

The term solubility denotes the dissolved amount per volume that the medium holds.
